US20240025924A1, “HETEROCYCLE SUBSTITUTED KETONE DERIVATIVE, AND COMPOSITION AND MEDICINAL USE THEREOF” (SHANGHAI HAIYAN PHARMACEUTICAL TECHNOLOGY CO., LTD., priority 2021, published 2024)

How the values were obtained:
MV-4-11 cell = experiment: Cell proliferation assay (Cell Titer-Glo); type: cell-based; conditions: Homo sapiens, MV4-11, 96 h, inhibition of MV-4-11 cell proliferation; Cell Titer-Glo on day 4
Method: MV 411 cells (20000 cells/well) were inoculated and cultured in 96 (Corning #3916) well plates, and the medium was 80 μL/well (IMDM with 10% fetal bovine serum (FBS), Gibco #10099-141C). After 24 hours of incubation, 20 μL of the compounds of the present invention configured to different concentrations (DMSO final concentration of 0.1% (V/V)) were added. On day 4, 60 μL of Cell Titer-Glo (Promega #G7558) was added to each well and mixed at 80 rpm, 25° C., 15 min, and the fluorescence values were detected by Victor X5 (PE).

SHP-2 enzyme = target: T1, SHP-2 enzyme (Homo sapiens, UniProt Q06124); experiment: Phosphatase activity assay (Homogeneous Full Length SHP-2 Assay Kit, DiFMUP substrate); type: biochemical; conditions: full length SHP-2 activated with 0.5 μM SHP-2 activating Peptide; 1 hour co-incubation; DiFMUP 50 μM, 30 min
T1 construct: Homogeneous Full Length SHP-2 Assay Kit (BPS Bioscience #79330); purchased BPS Bioscience 79330
T1 sequence (Q06124 1-593): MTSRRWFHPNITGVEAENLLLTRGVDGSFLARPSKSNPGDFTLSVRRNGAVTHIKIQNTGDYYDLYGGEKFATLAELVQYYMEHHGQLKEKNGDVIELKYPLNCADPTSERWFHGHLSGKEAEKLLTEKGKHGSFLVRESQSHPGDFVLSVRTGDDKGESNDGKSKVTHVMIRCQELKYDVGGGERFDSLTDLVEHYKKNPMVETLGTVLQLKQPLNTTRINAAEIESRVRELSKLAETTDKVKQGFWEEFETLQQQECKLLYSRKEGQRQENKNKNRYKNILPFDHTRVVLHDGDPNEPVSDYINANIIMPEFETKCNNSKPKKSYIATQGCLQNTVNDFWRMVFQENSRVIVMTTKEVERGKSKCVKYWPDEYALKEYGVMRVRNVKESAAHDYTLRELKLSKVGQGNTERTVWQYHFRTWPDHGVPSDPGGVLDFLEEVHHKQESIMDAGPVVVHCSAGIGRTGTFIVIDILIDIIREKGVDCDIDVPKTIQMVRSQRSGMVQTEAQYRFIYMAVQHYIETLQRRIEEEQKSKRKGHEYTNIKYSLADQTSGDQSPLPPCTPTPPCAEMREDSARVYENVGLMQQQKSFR
Method: IC50 values were assayed using Homogeneous Full Length SHP-2 Assay Kit (BPS Bioscience #79330), which uses 6,8-difluoro-4-methylumbelliferone phosphate (DiFMUP) as the reaction substrate. SHP2 enzyme solution (diluted to 0.04 ng/μL with 1*buffer) was mixed with 0.5 μM SHP-2 activating Peptide in a 1*buffer solution containing 2.5 mM DTT to activate PTP. At the same time, DMSO (0.1% (V/V)) or the compounds (concentration: 0.5 nM to 1 μM) were added, mixed and co-incubated for 1 hour. DiFMUP (50 μM, total reaction system volume of 20 μL) was added, and the reaction was started. After 30 min of incubation, the fluorescence intensity of the reaction system (excitation wavelength: 350 nm, emission wavelength: 460 nm) was measured by Tecan Infinite M1000.

SMILES | IC50 (MV-4-11 cell) [nM] | IC50 (SHP-2 enzyme) [nM]
NC(=O)c1nc(C(=O)N2CCCn3nccc32)cnc1N1CCC2(CC1)Cc1ccccc1C2N (stereo not shown) [Compound 23] | – | 22
Nc1nc(N2CCC3(CC2)Cc2cc(C(F)(F)F)ccc2C3N)cnc1C(=O)N1CCCn2nccc21 (stereo not shown) [Compound 55] | – | 50
Nc1nc(N2CCC3(CC2)Cc2ccccc2C3N)cnc1C(=O)N1CCc2ncccc21 (stereo not shown) [Compound 7] | 95 | 6
Nc1nc(N2CCC3(CC2)Cc2sc(Cl)nc2C3N)cnc1C(=O)N1CCCn2nccc21 (stereo not shown) [Compound 25] | – | 15
Nc1nc(N2CCC3(CC2)Cc2ccccc2C3N)cnc1C(=O)N1CCOc2cccnc21 (stereo not shown) [Compound 6] | – | 83
Cc1ccc2c(c1)C(N)C1(CCN(c3cnc(C(=O)N4Cc5sc(N)nc5C(F)(F)C4)c(N)n3)CC1)C2 (stereo not shown) [Compound 72] | 12 | –
CC1CN(C(=O)c2ncc(N3CCC4(CC3)Cc3ccccc3C4N)nc2N)c2cccnc21 (stereo not shown) [Compound 57] | – | 6
CC(C)(O)c1ccc2c(c1)C(N)C1(CCN(c3cnc(C(=O)N4CCCn5nccc54)c(N)n3)CC1)C2 (stereo not shown) [Compound 56] | – | 21
Nc1nc(N2CCC3(CC2)Cc2ccccc2C3N)cnc1C(=O)N1CCCc2cccnc21 (stereo not shown) [Compound 12] | – | 49
NC1c2ccccc2CC12CCN(c1ncc(C(=O)N3CCc4ncsc4C3)c3nccn13)CC2 (stereo not shown) [Compound 46] | 166 | 29
Nc1nc(N2CCC3(CC2)Cc2ccccc2C3N)cnc1C(=O)N1Cc2cccnc2C1 (stereo not shown) [Compound 20] | – | 17
Cc1nc(C(=O)N2CCCn3nccc32)c(N)nc1N1CCC2(CC1)Cc1ccc(F)cc1C2N (stereo not shown) [Compound 27] | 98 | 5
Nc1nc(N2CCC3(CC2)Cc2ccccc2C3N)cnc1C(=O)N1CCn2nccc2C1 (stereo not shown) [Compound 37] | 172 | 5
CC1(C)Cc2nc(N)sc2CN1C(=O)c1ncc(N2CCC3(CC2)Cc2ccccc2C3N)nc1N (stereo not shown) [Compound 69] | 49 | –
Nc1ccc2c(n1)CCN2C(=O)c1ncc(N2CCC3(CC2)Cc2ccc(CO)cc2C3N)nc1N (stereo not shown) [Compound 66] | 196 | 9
COc1ccc2c(c1)C(N)C1(CCN(c3cnc(C(=O)N4CCc5nc(N)ccc54)c(N)n3)CC1)C2 (stereo not shown) [Compound 62] | 156 | 5

SMILES | IC50 (MV-4-11 cell) [nM] | IC50 (SHP-2 enzyme) [nM]
Nc1nc(N2CCC3(CC2)Cc2cc(F)ccc2C3N)cnc1C(=O)N1CCc2ncccc21 (stereo not shown) [Compound 21] | 107 | 3
Nc1nc(N2CCC3(CC2)Cc2ccc(F)cc2C3N)cnc1C(=O)N1CCCn2nccc21 (stereo not shown) [Compound 8] | 111 | 5
CC1(C)CN(C(=O)c2ncc(N3CCC4(CC3)Cc3ccccc3C4N)nc2N)c2cccnc21 (stereo not shown) [Compound 36] | – | 18
Nc1nc(N2CCC3(CC2)Cc2ccccc2C3N)c(Br)nc1C(=O)N1CCCn2ncc(Br)c21 (stereo not shown) [Compound 29] | – | 43
NC1c2ccccc2CC12CCN(c1cnc(C(=O)N3CCCn4nccc43)cn1)CC2 (stereo not shown) [Compound 9] | – | 59
Nc1nc(N2CCC3(CC2)Cc2ccccc2C3N)cnc1C(=O)N1CCCc2c(Cl)cccc21 (stereo not shown) [Compound 14] | – | 22
Cc1cc2n(n1)CCCN2C(=O)c1ncc(N2CCC3(CC2)Cc2ccccc2C3N)nc1N (stereo not shown) [Compound 32] | – | 28
Cc1nc(N2CCC3(CC2)Cc2ccccc2C3N)c(CO)nc1C(=O)N1CCCn2nccc21 (stereo not shown) [Compound 43] | – | 60
Nc1nc(N2CCC3(CC2)Cc2cc(Cl)ccc2C3N)cnc1C(=O)N1CCCn2nccc21 (stereo not shown) [Compound 48] | – | 4
Nc1nc(N2CCC3(CC2)Cc2ccccc2C3N)cnc1C(=O)N1CCc2ncncc21 (stereo not shown) [Compound 51] | – | 35
Cc1nc(N2CCC3(CC2)Cc2ccccc2C3N)c(C(N)=O)nc1C(=O)N1CCCn2nccc21 (stereo not shown) [Compound 44] | – | 25
[2H]C1([2H])CN(C(=O)c2ncc(N3CCC4(CC3)Cc3ccc(C)cc3C4N)nc2N)Cc2sc(N)nc21 (stereo not shown) [Compound 71] | 16 | –
Nc1nc(N2CCC3(CC2)Cc2ncccc2C3N)cnc1C(=O)N1CCCn2nccc21 (stereo not shown) [Compound 39] | – | 36
Nc1nc(N2CCC3(CC2)Cc2ccccc2C3N)c(Cl)nc1C(=O)N1CCCn2ncc(Cl)c21 (stereo not shown) [Compound 31] | – | 47
Nc1nc(N2CCC3(CC2)Cc2ccccc2C3N)cnc1C(=O)N1CCOc2ncccc21 (stereo not shown) [Compound 11] | – | 24

Next, values leading:

IC50 (MV-4-11 cell) [nM] | IC50 (SHP-2 enzyme) [nM] | SMILES
218 | 10 | Nc1nc(N2CCC3(CC2)Cc2c(F)cccc2C3N)c(F)nc1C(=O)N1CCCn2nccc21 (stereo not shown) [Compound 78]
5 | 6 | Nc1nc2c(s1)CN(C(=O)c1cnc(N3CCC4(CC3)Cc3ccc(F)cc3C4N)c(CO)n1)CC2(F)F (stereo not shown) [Compound 118]
191 | 10 | COc1ccc2c(c1)CC1(CCN(c3cnc(C(=O)N4CCCn5nccc54)c(N)n3)CC1)C2N (stereo not shown) [Compound 76]
– | 10 | Nc1ccc2c(n1)CCN2C(=O)c1ncc(N2CCC3(CC2)Cc2ccncc2C3N)nc1N (stereo not shown) [Compound 97]
– | 9 | CC1(C)Cc2nc(N)sc2CN1C(=O)c1ncc(N2CCC3(CC2)Cc2ccccc2C3N)nc1N (stereo not shown) [Compound 121]
128 | 4 | Nc1nc(N2CCC3(CC2)Cc2cc(F)ccc2C3N)cnc1C(=O)N1CCc2nc(F)ccc21 (stereo not shown) [Compound 81]
18 | 14 | Cc1nc(N2CCC3(CC2)Cc2ccccc2C3N)c(CO)nc1C(=O)N1Cc2sc(N)nc2C(F)(F)C1 (stereo not shown) [Compound 112]
150 | 11 | Nc1nc(N2CCC3(CC2)Cc2c(F)cccc2C3N)nnc1C(=O)N1CCCn2nccc21 (stereo not shown) [Compound 77]
21 | 9 | Nc1nc2c(s1)CN(C(=O)c1ncc(N3CCC4(CC3)Cc3ccc(C5CC5)cc3C4N)nc1N)CC2 (stereo not shown) [Compound 110]
13 | 7 | Nc1nc2c(s1)CN(C(=O)c1ncc(N3CCC4(CC3)Cc3ccccc3C4N)nc1N)CC2(F)F (stereo not shown) [Compound 127]
58 | 10 | Cc1ccc2c(c1)C(N)C1(CCN(c3nc(N)c(C(=O)N4CCc5nc(N)ccc54)nc3C)CC1)C2 (stereo not shown) [Compound 104]
19 | – | COc1ccc2c(c1)C(N)C1(CCN(c3cnc(C(=O)N4Cc5sc(N)nc5C(F)(F)C4)c(N)n3)CC1)C2 (stereo not shown) [Compound 73]
157 | 4 | Nc1ccc2c(c1)CCN2C(=O)c1ncc(N2CCC3(CC2)Cc2ccccc2C3N)nc1N (stereo not shown) [Compound 96]
– | 5 | [2H]C1([2H])CN(C(=O)c2ncc(N3CCC4(CC3)Cc3ccc(C)cc3C4N)nc2N)Cc2sc(N)nc21 (stereo not shown) [Compound 123]
25 | 13 | Cc1nc(C(=O)N2Cc3sc(N)nc3C(C)C2)c(N)nc1N1CCC2(CC1)Cc1ccccc1C2N (stereo not shown) [Compound 105]
– | 9 | Cc1ccc2c(c1)C(N)C1(CCN(c3cnc(C(=O)N4Cc5sc(N)nc5C(F)(F)C4)c(N)n3)CC1)C2 (stereo not shown) [Compound 124]
– | 15 | Cc1nc(N2CCC3(CC2)Cc2ccccc2C3N)c(CO)nc1C(=O)N1CCc2nc(N)ccc21 (stereo not shown) [Compound 111]
6 | – | Nc1nc2c(s1)CN(C(=O)c1cnc(N3CCC4(CC3)Cc3ccccc3C4N)c(CO)n1)CC2(F)F (stereo not shown) [Compound 74]
– | 26 | Nc1ccc2c(n1)CCCN2C(=O)c1ncc(N2CCC3(CC2)Cc2ccccc2C3N)nc1N (stereo not shown) [Compound 98]
– | 24 | Nc1ccc2c(n1)CCN2C(=O)c1ncc(N2CCC3(CC2)Cc2cccc(F)c2C3N)nc1N (stereo not shown) [Compound 90]
